Results reported in PubChem BioAssay AID192 (DTP/NCI, 2004).
Values joined by “and” are separate entries in the source; they are usually repeats but may differ in a detail not shown here. Equal values may be shown once. Inconclusive results and toxic doses are left out. Rule for the calls: active = survival T/C of 150% or more; inactive = T/C below 125% in these data.

System: BDF1 mice, B16 melanoma ip, median survival T/C
Experiment: NCI In Vivo Anticancer Drug Screen. Data for tumor model B16 Melanoma (intraperitoneal) in B6D2F1 (BDF1) mice
Conditions: endpoint: median survival time, higher = longer survival
Method in brief: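 Values are ratios of treated (T) to vehicle-control (C) measurements of survival or tumor size in tumor-bearing mice.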

[1] = dose: 100.0 mg/kg/injection, schedule: Q01DX009 (ip), vehicle: Klucel (hydroxypropylcellulose) (HPC)
[2] = dose: 200.0 mg/kg/injection, schedule: Q01DX009 (ip), vehicle: Klucel (hydroxypropylcellulose) (HPC)
[3] = dose: 400.0 mg/kg/injection, schedule: Q01DX009 (ip), vehicle: Klucel (hydroxypropylcellulose) (HPC)
[4] = dose: 100.0 mg/kg/injection, schedule: Q01DX009 (ip), vehicle: saline with Tween-80
[5] = dose: 200.0 mg/kg/injection, schedule: Q01DX009 (ip), vehicle: saline with Tween-80
[6] = dose: 400.0 mg/kg/injection, schedule: Q01DX009 (ip), vehicle: saline with Tween-80
[7] = dose: 50.0 mg/kg/injection, schedule: Q01DX009 (ip), vehicle: Klucel (hydroxypropylcellulose) (HPC)
[8] = dose: 12.5 mg/kg/injection, schedule: Q01DX009 (ip), vehicle: saline
[9] = dose: 25.0 mg/kg/injection, schedule: Q01DX009 (ip), vehicle: saline
[10] = dose: 50.0 mg/kg/injection, schedule: Q01DX009 (ip), vehicle: saline
[11] = dose: 25.0 mg/kg/injection, schedule: Q01DX009 (ip), vehicle: saline with Tween-80
[12] = dose: 100.0 mg/kg/injection, schedule: Q01DX009 (ip), vehicle: saline
[13] = dose: 200.0 mg/kg/injection, schedule: Q01DX009 (ip), vehicle: saline
[14] = dose: 400.0 mg/kg/injection, schedule: Q01DX009 (ip), vehicle: saline

Measured: T/C

CC(C)C[C@H](NC(=O)[C@@H](O)[C@H](N)Cc1ccc(O)cc1)C(=O)O
inactive: dose: 0.05 mg/kg/injection, schedule: Q01DX009 (oral), vehicle: saline 97 % of control | dose: 0.5 mg/kg/injection, schedule: Q01DX009 (oral), vehicle: saline 97 % of control | dose: 5.0 mg/kg/injection, schedule: Q01DX009 (oral), vehicle: saline 101 % of control

CN(C)/C=C/C(=O)c1ccccc1[N+](=O)[O-]
inactive: [1] 115 % of control | dose: 100.0 mg/kg/injection, schedule: Q04DX003 (ip), vehicle: Klucel (hydroxypropylcellulose) (HPC) 95 % of control | [2] 100 % of control | dose: 200.0 mg/kg/injection, schedule: Q04DX003 (ip), vehicle: Klucel (hydroxypropylcellulose) (HPC) 92 % of control | [3] 93 % of control | dose: 400.0 mg/kg/injection, schedule: Q04DX003 (ip), vehicle: Klucel (hydroxypropylcellulose) (HPC) 88 % of control

Nc1ccc(S(=O)(=O)c2ccc(NCNc3ccc(S(=O)(=O)c4ccc(N)cc4)cc3)cc2)cc1
inactive: [4] 88 % of control | [5] 92 % of control | [6] 90 % of control

C=C1C(=O)O[C@@H]2[C@H]3O[C@]3(C)CCC=C(C)CC[C@@H]12
inactive: dose: 12.5 mg/kg/injection, schedule: Q01DX009 (ip), vehicle: Klucel (hydroxypropylcellulose) (HPC) 92 % of control | dose: 25.0 mg/kg/injection, schedule: Q01DX009 (ip), vehicle: Klucel (hydroxypropylcellulose) (HPC) 87 % of control | [7] 92 % of control

N#CNN=Nc1cc(Cl)c(Cl)c(Cl)c1
inactive: [8] 120 % of control | [9] 111 % of control

COC(=O)[C@H]1[C@H]2C[C@@H]3c4[nH]c5ccccc5c4CCN3C[C@H]2C[C@@H](OC(=O)c2cc(OC)c(OC)c(OC)c2)[C@@H]1OC
inactive: dose: 3.0 micrograms/kg/injection, schedule: Q01DX009 (ip), vehicle: saline 90 % of control | dose: 6.0 micrograms/kg/injection, schedule: Q01DX009 (ip), vehicle: saline 98 % of control | dose: 13.0 micrograms/kg/injection, schedule: Q01DX009 (ip), vehicle: saline 95 % of control | dose: 27.0 micrograms/kg/injection, schedule: Q01DX009 (ip), vehicle: saline 95 % of control | dose: 55.0 micrograms/kg/injection, schedule: Q01DX009 (ip), vehicle: saline 86 % of control

O=[N+]([O-])c1ccc2c(N=Nc3c(O)ccc4ccccc34)c(O)cc(S(=O)(=O)O)c2c1
inactive: [4] 106 % of control | [5] 102 % of control

O=[N+]([O-])/C=C/c1ccc2ccccc2c1
inactive: [7] 95 % of control | [1] 107 % of control

NCCC(=O)OC1CCCc2c(O)c3c(c(O)c21)C(=O)c1ccccc1C3=O (centres undefined)
inactive: [8] 96 % of control | [9] 100 % of control | [10] 93 % of control

Oc1ccc(Nc2ccnc3cc(Cl)ccc23)cc1CN(CCCl)CCCl
inactive: dose: 0.31 mg/kg/injection, schedule: Q01DX009 (ip), vehicle: saline 97 % of control | dose: 0.63 mg/kg/injection, schedule: Q01DX009 (ip), vehicle: saline 105 % of control | dose: 1.25 mg/kg/injection, schedule: Q01DX009 (ip), vehicle: saline 107 % of control and 113 % of control | dose: 2.5 mg/kg/injection, schedule: Q01DX009 (ip), vehicle: saline 115 % of control

CCCCCCCCCCCCCCCC(=O)N(CCCN(C)C)CCCN(CCCN(C)C)C(=O)CCCCCCCCCCCCCCC
inactive: dose: 1.56 mg/kg/injection, schedule: Q01DX009 (ip), vehicle: water 106 % of control | dose: 3.13 mg/kg/injection, schedule: Q01DX009 (ip), vehicle: water 101 % of control | dose: 6.25 mg/kg/injection, schedule: Q01DX009 (ip), vehicle: water 92 % of control | dose: 12.5 mg/kg/injection, schedule: Q01DX009 (ip), vehicle: water 87 % of control

Cc1c2ccc3ccccc3c2c[n+]2ccccc12
inactive: dose: 1.25 mg/kg/injection, schedule: Q01DX009 (ip), vehicle: Klucel (hydroxypropylcellulose) (HPC) 98 % of control | dose: 2.5 mg/kg/injection, schedule: Q01DX009 (ip), vehicle: Klucel (hydroxypropylcellulose) (HPC) 98 % of control | dose: 5.0 mg/kg/injection, schedule: Q01DX009 (ip), vehicle: Klucel (hydroxypropylcellulose) (HPC) 111 % of control | dose: 10.0 mg/kg/injection, schedule: Q01DX009 (ip), vehicle: Klucel (hydroxypropylcellulose) (HPC) 108 % of control | dose: 20.0 mg/kg/injection, schedule: Q01DX009 (ip), vehicle: Klucel (hydroxypropylcellulose) (HPC) 102 % of control

O=C(O)CNC(=O)C(Br)Cc1ccccc1 (centres undefined)
inactive: [11] 91 % of control | dose: 50.0 mg/kg/injection, schedule: Q01DX009 (ip), vehicle: saline with Tween-80 88 % of control | [4] 91 % of control | [6] 89 % of control

Cc1cc(=O)[nH]c2c(C)cc(-c3cc(C)c4[nH]c(=O)cc(C)c4c3)cc12
inactive: [12] 102 % of control | [13] 108 % of control | [14] 105 % of control

O=C1c2ccccc2S(=O)c2ccccc21
inactive: [1] 97 % of control | [2] 93 % of control

COC(=O)C(Br)C(Br)c1ccccc1 (centres undefined)
inactive: [4] 90 % of control | [5] 90 % of control | [6] 90 % of control

O=[N+]([O-])c1ccc(/C=C2/c3cc(Cl)ccc3-c3c(Cl)cc(Cl)cc32)o1
inactive: [10] 93 % of control | [12] 100 % of control | [13] 90 % of control | [14] 88 % of control

CCCCCCCCC(O)CCCCC (centres undefined)
inactive: [1] 100 % of control | [2] 94 % of control | [3] 98 % of control

C/C1=C/C2=CC(C)C[C@@H]2C(=O)[C@]2(C)C(=O)CC(C)(C)[C@H]2CC1=O (some centres undefined)
inactive: dose: 0.13 mg/kg/injection, schedule: Q01DX009 (ip), vehicle: Klucel (hydroxypropylcellulose) (HPC) 102 % of control | dose: 0.25 mg/kg/injection, schedule: Q01DX009 (ip), vehicle: Klucel (hydroxypropylcellulose) (HPC) 96 % of control | dose: 0.5 mg/kg/injection, schedule: Q01DX009 (ip), vehicle: Klucel (hydroxypropylcellulose) (HPC) 96 % of control | dose: 1.0 mg/kg/injection, schedule: Q01DX009 (ip), vehicle: Klucel (hydroxypropylcellulose) (HPC) 91 % of control

COC(=O)[C@]1(C)CCC[C@]2(C)[C@H]3CC4OO[C@@]3(CC[C@H]21)[C@H]1O[C@@]41C(C)C
inactive: [4] 100 % of control | [5] 113 % of control

C=COCC(C)C (tested in a mixture with another compound)
inactive: dose: 0.39 mg/kg/injection, schedule: Q01DX009 (ip), vehicle: saline 108 % of control | dose: 0.78 mg/kg/injection, schedule: Q01DX009 (ip), vehicle: saline 100 % of control | dose: 1.56 mg/kg/injection, schedule: Q01DX009 (ip), vehicle: saline with Tween-80 88 % of control | dose: 1.56 mg/kg/injection, schedule: Q01DX009 (ip), vehicle: saline 88 % of control and 94 % of control | dose: 3.13 mg/kg/injection, schedule: Q01DX009 (ip), vehicle: saline 89 % of control | dose: 6.25 mg/kg/injection, schedule: Q01DX009 (ip), vehicle: saline 86 % of control

CCCCOc1ccc(NC(N)=Nc2ccc(Cl)cc2)cc1
inactive: dose: 3.12 mg/kg/injection, schedule: Q01DX009 (ip), vehicle: saline with Tween-80 95 % of control | dose: 6.25 mg/kg/injection, schedule: Q01DX009 (ip), vehicle: saline with Tween-80 88 % of control | dose: 12.5 mg/kg/injection, schedule: Q01DX009 (ip), vehicle: saline with Tween-80 90 % of control | [11] 86 % of control

Cc1cccc(C)c1NC(=O)Nc1ccc(Cl)c(Cl)c1
inactive: dose: 25.0 mg/kg/injection, schedule: Q01DX009 (ip), vehicle: other 95 % of control | dose: 50.0 mg/kg/injection, schedule: Q01DX009 (ip), vehicle: other 99 % of control | dose: 100.0 mg/kg/injection, schedule: Q01DX009 (ip), vehicle: other 87 % of control and 103 % of control

C=C(C)[C@@H]1CC[C@]2(CO)CC[C@]3(C)[C@H](CC[C@@H]4[C@@]5(C)CC[C@H](O)C(C)(C)[C@@H]5CC[C@]43C)[C@@H]12
inactive: [1] 99 % of control | [2] 97 % of control | [3] 95 % of control

COc1ccc(-c2c(CC(=O)O)c3cc(OC)ccc3n2Cc2ccc(Cl)cc2)cc1
inactive: [1] 95 % of control | dose: 100.0 mg/kg/injection, schedule: Q04DX003 (ip), vehicle: saline with Tween-80 100 % of control | [2] 94 % of control | dose: 200.0 mg/kg/injection, schedule: Q04DX003 (ip), vehicle: saline with Tween-80 95 % of control | [3] 95 % of control | dose: 400.0 mg/kg/injection, schedule: Q04DX003 (ip), vehicle: saline with Tween-80 95 % of control
